“Also recorded” adds a separate entry of the source.
Legend:
[1] = test system: C5b-9 deposition on PIGA null TF-1 cells; experiment: Flow cytometry for C5b-9 deposition; assay type: cell-based, human; conditions: for Inhibition of C5b-9 deposition induced by APS patient sera: APS patient sera on PIGA null TF-1 cells; for Inhibition of C5b-9 deposition induced by CAPS sera: CAPS patient sera (e.g. CAPS5); for Inhibition of C5b-9 deposition induced by patient-derived IgG anti-β2GPI antibody: anti-β2GPI from thrombotic APS patient APS21 added to normal human serum
Description: Patient derived anti-β2GPI antibodies. Anti-β2GPI antibodies from two patients were affinity purified using a column of Affigel HZ to which purified human β2GPI was coupled (Bio-Rad Laboratories, Hercules, Calif.), as previously described.^43 IgG purity was assessed by reduced SDS-PAGE. Complement activation (C5b-9 deposition and complement dependent cell killing in mHam) induced by patient-derived anti-β2GPI antibodies was tested by adding patient-derived anti-β2GPI antibodies to normal human serum (Cat. NHS, Complement Technology, Inc.).
Flow cytometry for C5b-9 deposition. Flow cytometry was performed to evaluate cell surface deposition of C5b-9 deposition on PIGA null TF1 cells. Cells were seeded in V-bottom 96-well plates (1.2×10^5 cells/well) either in GVB^0.MgEGTA (pH 6.4) buffer for alternative pathway activation or GVB++ (pH 7.4) buffer for classical pathway activation followed by addition of APS patient serum (or patient-derived aPL added to normal human serum). The reaction was incubated for 15 min at 37° C., and stopped by adding FACS buffer/EDTA. Cell pellets were separated by centrifugation at 1900 rpm for 3 minutes at room temperature and then stained with Alexa 488 conjugated anti-C3c antibody (Cat. 4212, Abcam, dilution at 1:100) and […] monoclonal primary antibody (Cat. 66768, Abcam, dilution at 1:100), followed by Alexa 647 conjugated secondary antibody. C5b-9 deposition was measured by a BD FACSCalibur. Ten thousand events were recorded per sample and analyzed using FlowJo software version 10.5.3 (FlowJo Inc). Normal human serum was used as a negative control for flow cytometry assays. We also evaluated the effect of adding anti-C5 mAb and ACH-4471 on C5b-9 deposition.

PIGA null TF-1 cells [2] = experiment: Modified Ham (mHam) assay, complement-dependent cell killing; assay type: cell-based, human; conditions: anti-C5 mAb 10 μg, ACH-4471 0.33 μM; for Inhibition of cell killing in the mHam induced by APS sera: APS patient sera; for Inhibition of mHam cell killing induced by CAPS sera: CAPS patient sera
PIGA null TF-1 cells [3] = conditions: previously demonstrated (ref. 46); cited from earlier work

SMILES: CC(=O)c1nn(CC(=O)N2C[C@H](F)C[C@H]2C(=O)Nc2cccc(Br)n2)c2ccc(-c3cnc(C)nc3)cc12 [ACH-4471]
- Inhibition of C5b-9 deposition induced by APS patient sera [1]: less so
- Inhibition of C5b-9 deposition induced by APS patient sera ([1]; listed as ACH4471): did not appreciably inhibit; also recorded: did not prevent
- Inhibition of C5b-9 deposition induced by CAPS sera [1]: partially blocked; also recorded: partially inhibited
- Inhibition of C5b-9 deposition induced by CAPS sera ([1]; listed as ACH4471): partially
- Inhibition of C5b-9 deposition induced by aHUS patient sera ([1]; aHUS patient PS-18 sera): completely inhibited
- Inhibition of C5b-9 deposition induced by patient-derived IgG anti-β2GPI antibody [1]: partially
- Inhibition of C5b-9 deposition induced by patient-derived IgG anti-β2GPI antibody ([1]; listed as factor D inhibitor): minimally inhibited
- Inhibition of cell killing in the mHam induced by APS sera (PIGA null TF-1 cells [2]): less so
- Inhibition of cell killing in the mHam induced by APS sera (PIGA null TF-1 cells [2]; listed as ACH4471): did not prevent cell killing
- Inhibition of mHam cell killing induced by CAPS sera (PIGA null TF-1 cells [2]): partially blocked; also recorded: partially inhibited
- Inhibition of mHam cell killing induced by CAPS sera (PIGA null TF-1 cells [2]; listed as factor D inhibitor): attenuated
- Blocking complement dependent killing in the mHam with aHUS serum (PIGA null TF-1 cells [3]): highly effective in blocking
